Assay results: publication PMC9229949 (Pharmaceutics, 2022)
Where two headings read alike, the source gives them in different places.

Legend:
[1] = test system: P. berghei sporozoites in Huh-7 cells; assay: P. berghei hepatic stages: infection of Huh-7 cells by luciferase-expressing sporozoites; format: cell-based
Experimental: Huh-7 cells at 1.0 × 10^4 per well were seeded in 96-well plates the day before drug treatment and infection. The culture medium was replaced by infection medium (culture medium supplemented with gentamicin (50 μg/mL) and amphotericin B (0.8 μg/mL)) containing the appropriate concentration of each compound for approximately 1 h prior to infection with sporozoites of firefly luciferase-expressing P. berghei, freshly obtained through the disruption of salivary glands of infected female Anopheles stephensi mosquitoes. An amount of the DMSO solvent equivalent to that present in the highest compound concentration was used as negative control. Sporozoite addition was followed by centrifugation at 1800× g for 5 min. and parasite infection load was measured 48 h after infection by using a bioluminescence assay (Biotium, Hayward, CA, USA). The effect of the compounds on the viability of Huh-7 cells was assessed by performing the AlamarBlue (Invitrogen, Waltham, MA, USA) assay according to the manufacturer’s protocol.

[2] = target: 3D7 P. falciparum gametocytes stage V; assay: P. falciparum mature gametocytes (stage V), luciferase viability; format: cell-based; settings: 3D7 strain, 72 h, mean ± S.D. of one experiment, read-out: IC50, gametocytes of P. falciparum, Stage V
Experimental: The activity of compounds was assessed against young gametocytes (stages I/III) and against mature gametocytes (stage V). […] A volume of 100 μL of 3D7elo1-pfs16-CBG99 gametocytes of 3D7 P. falciparum at 0.5–1% parasitemia and 2% hematocrit were dispensed. […] Luciferase activity was used to determine gametocytes viability. A volume of 100 µL of culture medium was removed from each well to increase hematocrit; 70 µL of resuspended culture was transferred to a black 96-well plate; 70 µL of D-luciferin (1 mM in citrate buffer 0.1 M, pH 5.5) was added. Luminescence measurements were performed after 10 min with 500 ms integration time. The IC50 was extrapolated from nonlinear regression analysis of the concentration–response curve.

human TrxR (hTrxR) = target: T1, human TrxR (hTrxR) (Homo sapiens, UniProt Q16881); assay: Inhibition of enzymatic activity of recombinant human TrxR; format: biochemical; settings: recombinant enzyme, 15 min preincubation; mean of one experiment; read-out: IC50 for TrxRs, Human (Sec)
T1 construct: made in house
T1 sequence (Q16881 151-649 limits assumed): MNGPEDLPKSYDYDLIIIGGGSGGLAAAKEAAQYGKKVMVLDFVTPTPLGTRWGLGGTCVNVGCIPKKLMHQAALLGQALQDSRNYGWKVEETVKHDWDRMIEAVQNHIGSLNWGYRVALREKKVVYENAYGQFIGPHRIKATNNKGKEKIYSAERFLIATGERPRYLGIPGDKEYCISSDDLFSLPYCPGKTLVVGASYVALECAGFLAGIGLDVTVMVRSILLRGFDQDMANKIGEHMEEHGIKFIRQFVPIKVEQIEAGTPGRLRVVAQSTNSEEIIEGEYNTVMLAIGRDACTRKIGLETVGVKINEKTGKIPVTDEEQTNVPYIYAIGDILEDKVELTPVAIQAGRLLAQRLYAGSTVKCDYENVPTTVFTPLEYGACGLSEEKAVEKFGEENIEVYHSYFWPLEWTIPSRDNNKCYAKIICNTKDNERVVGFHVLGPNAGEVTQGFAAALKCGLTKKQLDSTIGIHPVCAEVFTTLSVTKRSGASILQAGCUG
Experimental: (§1) The codon-optimized sequence for PfTrxR [27, 28] was synthesized and subcloned into pET-15b (Genscript) and expressed and purified as for human glutathione reductase (hGR). Recombinant Schistosoma mansoni (S. mansoni) thioredoxin glutathione reductase (SmTGR), human TrxR (hTrxR), and hGR proteins were expressed and purified as described. TrxR and TGR enzyme inhibition assays were performed in triplicate at 25 °C in 0.1 M potassium phosphate (pH 7.4), 10 mM EDTA, 100 µM NADPH and 0.01% Tween-20. SmTGR (4 nM), hTrxR (4 nM), and PfTrxR (50 nM) were preincubated with the compounds for 15 min. The reaction was started with addition of an equal volume of 5,5′-dithiobis(2-nitrobenzoic acid) (6 mM) and NADPH (100 µM). The increase in A412 during the first 3 min was recorded. […]. The reactions were performed in triplicate. The IC50s were calculated in Prism version 5.01.

PfTrxR = target: T2, PfTrxR (Plasmodium falciparum, UniProt Q25861); assay: Inhibition of enzymatic activity of recombinant P. falciparum TrxR; format: biochemical
T2 construct: made in house
T2 sequence (Q25861 1-541): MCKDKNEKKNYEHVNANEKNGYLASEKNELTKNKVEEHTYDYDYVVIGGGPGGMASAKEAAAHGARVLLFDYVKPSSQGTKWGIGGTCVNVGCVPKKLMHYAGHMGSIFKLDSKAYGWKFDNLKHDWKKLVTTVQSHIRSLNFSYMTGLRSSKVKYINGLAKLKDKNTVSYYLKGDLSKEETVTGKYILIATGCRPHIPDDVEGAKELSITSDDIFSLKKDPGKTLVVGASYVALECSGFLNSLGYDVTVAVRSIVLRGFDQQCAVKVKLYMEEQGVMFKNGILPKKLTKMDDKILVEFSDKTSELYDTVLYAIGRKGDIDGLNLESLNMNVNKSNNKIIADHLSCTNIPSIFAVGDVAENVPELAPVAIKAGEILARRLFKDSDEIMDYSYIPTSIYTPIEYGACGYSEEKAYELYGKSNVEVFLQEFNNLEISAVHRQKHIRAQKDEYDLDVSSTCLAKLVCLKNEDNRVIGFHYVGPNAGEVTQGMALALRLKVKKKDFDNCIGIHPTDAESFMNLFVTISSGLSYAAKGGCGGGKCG
Experimental: as §1

[3] = target: T3, human glutathione reductase (hGR) (Homo sapiens, UniProt P00390); assay: Inhibition of enzymatic activity of recombinant human glutathione reductase; format: biochemical; settings: recombinant enzyme, 15 min preincubation; mean of one experiment; read-out: IC50, Human GR
T3 construct: made in house
T3 sequence (P00390 44-522): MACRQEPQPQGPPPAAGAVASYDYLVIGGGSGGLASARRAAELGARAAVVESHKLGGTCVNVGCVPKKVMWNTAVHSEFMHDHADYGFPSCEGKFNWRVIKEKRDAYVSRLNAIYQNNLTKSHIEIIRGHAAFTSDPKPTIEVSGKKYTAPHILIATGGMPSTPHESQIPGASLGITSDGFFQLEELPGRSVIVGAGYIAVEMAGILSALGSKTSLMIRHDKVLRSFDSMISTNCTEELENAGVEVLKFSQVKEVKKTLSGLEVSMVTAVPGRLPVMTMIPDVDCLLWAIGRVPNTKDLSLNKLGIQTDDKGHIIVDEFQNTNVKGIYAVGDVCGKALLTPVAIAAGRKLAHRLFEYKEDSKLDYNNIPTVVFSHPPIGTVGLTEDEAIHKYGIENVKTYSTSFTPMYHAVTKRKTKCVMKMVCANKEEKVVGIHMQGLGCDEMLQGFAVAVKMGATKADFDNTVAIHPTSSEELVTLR
Experimental: as §1

Compound | inhibitory activity for the hepatic stages ([1]; up to 10 μM) | IC50 [2] [µM] | IC50 (human TrxR (hTrxR)) [µM] | IC50 (PfTrxR; recombinant enzyme, 15 min preincubation, mean of one experiment, read-out: IC50 for TrxRs, P. falciparum (Cys)) [µM] | IC50 [3] [µM] | inhibition at 10 µM ([1]; Plasmodium berghei, Huh-7, 48 h, read-out: Sporozoites (Inhibition of Infection, %)) [%] | IC50 ([2]; Plasmodium falciparum) [µM] | IC50 (PfTrxR) [µM]
[Cl][Au].c1ccc(P(c2ccccc2)c2ccccc2)cc1 [[AuClPPh3]] | no inhibitory activity | 15.2 ± 2.6 | 0.00065 | 0.0019 | 0.00118 |  |  | 
CCN(CC)Cc1cc(Nc2ccnc3cc(Cl)ccc23)ccc1O [Amodiaquine (AQ), amodiaquine] |  |  | 26.5 |  | > 66.7 | 71 | 23.6 ± 5 | > 66.7
